Laboratory results: the supplement of paper PMC10307832

Each cell line was assayed with C[C@@]1(C(=O)Nc2ccc(F)nc2)CCCN1c1nc(Nc2cc(C3CC3)n[nH]2)c2cccn2n1 + C[C@@H](Oc1cc(-c2cnn(C3CCNCC3)c2)cnc1N)c1c(Cl)ccc(F)c1Cl [Crizotinib] (partner 1 µM) (assay: relative viability (nuclei count vs DMSO), 5 days (fraction); higher = more cells survive). Conditions: first compound 0.4 µM.
Method in brief: (§1)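 Lung cancer cell lines in 1536-well plates were dosed by pin tool the day after seeding, either with one drug alone or with a fixed anchor-drug dose plus five library-drug doses (not always all listed) in √10 steps. After 5 days, cells were fixed and their nuclei stained in one step (final 0.05% Triton X-100, 1% formaldehyde, 1 ug/ml Hoechst), then counted on 4× images. Relative viability is the nuclei count in treated wells divided by that in vehicle wells. Values are medians of duplicate plates.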

Compared with SK-LU-1, 201T is higher in relative viability: 0.715 for the first, 0.933 for the second.

Compared with NCI-H1915, HCC-827 is higher in relative viability: 0.898 for the first, 0.901 for the second.

Going from LXF-289 to NCI-H23, the relative viability falls from 0.751 to 0.2.

Going from NCI-H647 to NCI-H1651, the relative viability falls from 0.841 to 0.775.

Going from EPLC-272H to NCI-H1792, the relative viability falls from 0.676 to 0.62.

Compared with NCI-H1355, NCI-H3122 is lower in relative viability: 0.728 for the first, 0.182 for the second.

Going from NCI-H1437 to NCI-H1755, the relative viability rises from 0.561 to 0.756.

First: NCI-H2023
Second: HCC-15
The relative viability of the first is lower: 0.318 for the first, 0.66 for the second.

First: PC-14
Second: EKVX
The relative viability of the first is higher: 0.758 for the first, 0.612 for the second.

First: LC-2-ad
Second: NCI-H1975
The relative viability of the first is lower: 0.349 for the first, 0.899 for the second.

For RERF-LC-KJ, the relative viability was 0.732.

Same assay, conditions: first compound 1.265 µM

Going from LU99A to BEN, the relative viability rises from 0.233 to 0.999.

First: HARA
Second: HCC-78
The relative viability of the first is higher: 1.1 for the first, 0.307 for the second.

Compared with NCI-H322M, LCLC-97TM1 is lower in relative viability: 1.15 for the first, 0.187 for the second.

First: NCI-H2009
Second: A-427
The relative viability of the first is lower: 0.541 for the first, 0.882 for the second.

First: NCI-H441
Second: NCI-H1734
The relative viability of the first is higher: 0.527 for the first, 0.509 for the second.

Compared with NCI-H460, NCI-H2347 is higher in relative viability: 0.331 for the first, 0.569 for the second.

Compared with SK-LU-1, 201T is higher in relative viability: 0.467 for the first, 0.973 for the second.

First: NCI-H1915
Second: HCC-827
The relative viability of the first is higher: 0.952 for the first, 0.9 for the second.

Compared with LXF-289, NCI-H23 is lower in relative viability: 0.714 for the first, 0.35 for the second.

First: NCI-H647
Second: NCI-H1651
The relative viability of the first is lower: 0.447 for the first, 0.846 for the second.

Going from EPLC-272H to NCI-H1792, the relative viability falls from 1.16 to 0.473.

First: NCI-H1355
Second: NCI-H3122
The relative viability of the first is higher: 1.02 for the first, 0.222 for the second.

Going from NCI-H1437 to NCI-H1755, the relative viability rises from 0.762 to 0.836.

Going from NCI-H2023 to HCC-15, the relative viability rises from 0.119 to 0.714.

First: PC-14
Second: EKVX
The relative viability of the first is higher: 0.763 for the first, 0.679 for the second.

Compared with LC-2-ad, NCI-H1975 is higher in relative viability: 0.304 for the first, 0.486 for the second.

In the case of RERF-LC-KJ, the relative viability was 0.801.

What follows are cell lines tested with CC1(C)CNc2cc(NC(=O)c3cccnc3NCc3ccncc3)ccc21 [Motesanib] + CC(=O)Nc1cccc(-n2c(=O)n(C3CC3)c(=O)c3c(Nc4ccc(I)cc4F)n(C)c(=O)c(C)c32)c1 [Trametinib] (partner 0.02 µM) in the same assay as above. Conditions: first compound 0.01 µM.
Method in brief: as §1

First: LU99A
Second: BEN
The relative viability of the first is lower: 0.302 for the first, 0.996 for the second.

First: HARA
Second: HCC-78
The relative viability of the first is lower: 0.649 for the first, 0.653 for the second.

First: NCI-H322M
Second: LCLC-97TM1
The relative viability of the first is higher: 0.471 for the first, 0.152 for the second.

Compared with NCI-H2009, A-427 is higher in relative viability: 0.244 for the first, 0.742 for the second.

First: NCI-H441
Second: NCI-H661
The relative viability of the first is lower: 0.41 for the first, 0.485 for the second.

Compared with NCI-H1734, NCI-H460 is lower in relative viability: 0.6 for the first, 0.139 for the second.

Going from NCI-H2347 to SK-LU-1, the relative viability rises from 0.264 to 0.424.

Going from 201T to NCI-H1915, the relative viability falls from 0.743 to 0.209.

Compared with HCC-827, LXF-289 is higher in relative viability: 0.442 for the first, 0.624 for the second.

Going from NCI-H23 to NCI-H647, the relative viability rises from 0.392 to 0.452.

Compared with NCI-H1651, EPLC-272H is lower in relative viability: 0.817 for the first, 0.287 for the second.

Compared with NCI-H1792, NCI-H1355 is lower in relative viability: 0.511 for the first, 0.398 for the second.

First: NCI-H3122
Second: NCI-H1437
The relative viability of the first is lower: 0.218 for the first, 0.587 for the second.
